Counter-ions that a name gives are not always drawn. Like-named read-outs stand apart in the source and are kept apart here.

These results are taken from article PMC8286840, “Identifying SARS-CoV-2 antiviral compounds by screening for small molecule inhibitors of Nsp3 papain-like protease” (Biochemical Journal, 2021).

For assay [1], the target named is T1, SARS-CoV-2 PLpro (nsp3 1564–1878) (Severe acute respiratory syndrome coronavirus 2, UniProt P0DTD1). Description: biochemical. Details: FRET-quenched peptide (Pro3) cleavage by PLpro, 10 min pre-incubation, slope over 20 min, normalised to no-compound control. As to conditions: low concentration screen, read-out: % of control remaining.
The target in assay [2] is T1, SARS-CoV-2 PLpro (nsp3 1564–1878). Description: biochemical. Also noted: FRET-quenched peptide (Pro3) cleavage by PLpro, 10 min pre-incubation, slope over 20 min, normalised to no-compound control. As to conditions: high concentration screen, read-out: % of control remaining.

`CN1CCN(C2=Nc3ccccc3Oc3ccc(Cl)cc32)CC1` [Loxapine]: the remaining activity at 1.25 µM in assay [1] (Well no.=6371) came out at 99.7%. Also, the remaining activity at 3.75 µM in assay [2] (Well no.=6371) amounted to 102%.
Take `C=CC(=O)Nc1ccc2ncnc(Nc3cccc(Br)c3)c2c1` [PD168393]: in assay [1] (Well no.=4750), the remaining activity at 1.25 µM was 105%. The remaining activity at 3.75 µM in assay [2] (Well no.=4750) is 104%.
Take `CN(C)CCN1C(=O)c2ccccc2N(C)c2ccccc21` [Dibenzepine]: the remaining activity at 1.25 µM in assay [1] (Well no.=2096) came out at 97%. For the same compound, the remaining activity at 3.75 µM in assay [2] (Well no.=2096) worked out at 99.6%.
Regarding `Nc1nc(Nc2ccccc2)nc2c1ncn2[C@@H]1O[C@H](CO)[C@@H](O)[C@H]1O` [2-Phenylaminoadenosine], the remaining activity at 1.25 µM in assay [1] (Well no.=1213) was determined as 102%. In addition, in assay [2] (Well no.=1213), the remaining activity at 3.75 µM worked out at 106%.
Consider `NCCCCCC(=O)O` [6-Aminohexanoic acid], for which, in assay [1] (Well no.=6), the remaining activity at 1.25 µM worked out at 101%. Also, the remaining activity at 3.75 µM in assay [2] (Well no.=6) was found to be 102%.
Turning to `CN(c1ccccc1CNc1nc(Nc2ccc3c(c2)CC(=O)N3)ncc1C(F)(F)F)S(C)(=O)=O` [PF431396], the remaining activity at 1.25 µM in assay [1] (Well no.=3033) turned out to be 99.3%. Further, the remaining activity at 3.75 µM in assay [2] (Well no.=3033) was determined as 100%.
In the case of `CCCCCN(C)CCC(O)(P(=O)(O)O)P(=O)(O)O` [Ibandronate], the remaining activity at 1.25 µM in assay [1] (Well no.=1933) worked out at 107%. In assay [2] (Well no.=1933), the remaining activity at 3.75 µM came to 102%.
In the case of `O=C1NC(=O)C(c2cnc3ccccn23)=C1c1cn2c3c(cc(F)cc13)CN(C(=O)N1CCCCC1)CC2` [LY2090314], the remaining activity at 1.25 µM in assay [1] (Well no.=5645) stood at 98.7%. Besides, in assay [2] (Well no.=5645), the remaining activity at 3.75 µM stood at 98.2%.
Consider `COc1ccc(S(=O)(=O)Nc2cccnc2Nc2ccc(O)cc2)cc1` [ABT-751], for which the remaining activity at 1.25 µM in assay [1] (Well no.=5226) stood at 91.8%. Besides, the remaining activity at 3.75 µM in assay [2] (Well no.=5226) is 92.1%.
Consider `CN1[C@@H]2CC(O)C[C@H]1[C@@H]1O[C@@H]12` (stereo partly drawn) [Scopine HCl], for which the remaining activity at 1.25 µM in assay [1] (Well no.=4914) was 87.1%. Further, the remaining activity at 3.75 µM in assay [2] (Well no.=4914) was 84%.
With `C[C@@]12C(=O)OC(=O)[C@]1(C)[C@H]1CC[C@@H]2O1` [Cantharidin], the remaining activity at 1.25 µM in assay [1] (Well no.=42) was determined as 94.6%; in assay [1] (Well no.=3129) it was 107%. The remaining activity at 3.75 µM in assay [2] (Well no.=42) amounted to 97.9%; in assay [2] (Well no.=3129), 108%.
Consider `CC(C)[C@@H]1NC(=O)[C@H](CCCCN)NC(=O)[C@@H](Cc2c[nH]c3ccccc23)NC(=O)[C@H](Cc2ccc(O)cc2)NC(=O)[C@H](C)N(C)C(=O)[C@H](Cc2ccccc2)NC1=O` [Seglitide], for which the remaining activity at 1.25 µM in assay [1] (Well no.=1452) was determined as 97%. The remaining activity at 3.75 µM in assay [2] (Well no.=1452) was found to be 97.2%.
Turning to `CCCCC/C=C\C/C=C\C/C=C\C/C=C\CCCC(=O)C(F)(F)F` [AACOCF3], the remaining activity at 1.25 µM in assay [1] (Well no.=4486) came out at 102%. For the same compound, the remaining activity at 3.75 µM in assay [2] (Well no.=4486) came out at 102%.
On to `CC(C)OC(=O)CCC/C=C\C[C@@H]1[C@@H](CC[C@@H](O)CCc2ccccc2)[C@H](O)C[C@@H]1O` [Latanoprost], for which the remaining activity at 1.25 µM in assay [1] (Well no.=1769) was 97.5%; in assay [1] (Well no.=6843), 100%. Moreover, the values for the remaining activity at 3.75 µM in assay [2] (Well no.=1769) and in assay [2] (Well no.=6843) were 95.3% and 98.9%, respectively.
With `CC(/C=C/C(=O)NO)=C\[C@@H](C)C(=O)c1ccc(N(C)C)cc1` [Trichostatin A (TSA)], the remaining activity at 1.25 µM in assay [1] (Well no.=4617) is 106%. The remaining activity at 3.75 µM in assay [2] (Well no.=4617) stood at 107%.
Take `CCCc1nn(C)c2c(=O)[nH]c(-c3cc(S(=O)(=O)N4CCN(C)CC4)ccc3OCC)nc12` [Sildenafil]: the remaining activity at 1.25 µM in assay [1] (Well no.=1836) was found to be 99.2%. Also, in assay [2] (Well no.=1836), the remaining activity at 3.75 µM was determined as 96.8%.
Consider `c1ccc(CC2=NCCN2)cc1` [Tolazoline (hydrochloride)], for which, in assay [1] (Well no.=6231), the remaining activity at 1.25 µM is 104%. Further, the remaining activity at 3.75 µM in assay [2] (Well no.=6231) worked out at 107%.
`CC[C@@H](N)C(=O)O` [D(-)-2-Aminobutyric acid]: the remaining activity at 1.25 µM in assay [1] (Well no.=7701) was 97.2%. Moreover, in assay [2] (Well no.=7701), the remaining activity at 3.75 µM was determined as 92.5%.
Turning to `COC(=O)[C@@H]1CC2=CC(=O)CC[C@]2(C)[C@@]23O[C@@H]2C[C@@]2(C)[C@@H](CC[C@@]24CCC(=O)O4)[C@H]13` [Eplerenone], the remaining activity at 1.25 µM in assay [1] (Well no.=5343) was 97.5%. For the same compound, in assay [2] (Well no.=5343), the remaining activity at 3.75 µM was 96.5%.
`NCCc1c[nH]c2ccccc12` [Tryptamine hydrochloride]: the remaining activity at 1.25 µM in assay [1] (Well no.=291) is 97.7%. The remaining activity at 3.75 µM in assay [2] (Well no.=291) came to 96.5%.
As to `C[C@H](N)[C@H](O)c1ccccc1` [Phenylpropanolamine], the remaining activity at 1.25 µM in assay [1] (Well no.=2292) stood at 96.7%. In assay [2] (Well no.=2292), the remaining activity at 3.75 µM was 97.2%.
In the case of `C=C[C@]12CN(C)[C@@H]3[C@H]4CO[C@H](C[C@H]41)[C@]1(C(=O)Nc4ccccc41)[C@@H]32`, in assay [1] (Well no.=3460), the remaining activity at 1.25 µM worked out at 98%. Further, in assay [2] (Well no.=3460), the remaining activity at 3.75 µM came out at 99%.
`CC(C)C(C(=O)O)N1C(=O)/C(=C\c2ccc(Br)cc2)SC1=S` (stereo not drawn) [BH3I-1]: the remaining activity at 1.25 µM in assay [1] (Well no.=6586) is 98.6%. Moreover, in assay [2] (Well no.=6586), the remaining activity at 3.75 µM was found to be 99.7%.
On to `O=C(Oc1ccc([N+](=O)[O-])cc1)N1CCN(Cc2cccc(Oc3ccccc3)c2)CC1` [JZL195], for which, in assay [1] (Well no.=5512), the remaining activity at 1.25 µM was determined as 107%. Moreover, the remaining activity at 3.75 µM in assay [2] (Well no.=5512) turned out to be 108%.
Regarding `CC(=O)O[C@H]1C[C@@]2(C)[C@@H](C[C@@H](O)[C@H]3[C@@]4(C)CC[C@@H](O)[C@@H](C)[C@@H]4CC[C@@]32C)/C1=C(\CCC=C(C)C)C(=O)O` [Fusidic acid sodium], the remaining activity at 1.25 µM in assay [1] (Well no.=657) was determined as 104%. In assay [2] (Well no.=657), the remaining activity at 3.75 µM stood at 101%.
In the case of `Oc1ccc2ccccc2c1N=Nc1ccc(N=Nc2ccccc2)cc1` [Sudan III], the remaining activity at 1.25 µM in assay [1] (Well no.=8024) worked out at 93.7%. For the same compound, the remaining activity at 3.75 µM in assay [2] (Well no.=8024) came to 93.4%.
With `CC(C)Cc1ccc(CC(=O)O)cc1` [Ibufenac], the remaining activity at 1.25 µM in assay [1] (Well no.=5479) was determined as 105%. Moreover, the remaining activity at 3.75 µM in assay [2] (Well no.=5479) came out at 109%.
On to `O[C@H](c1cc(C(F)(F)F)nc2c(C(F)(F)F)cccc12)[C@@H]1CCCCN1` [(R)-[2,8-bis(trifluoromethyl)-4-quinolinyl][(2S)-2-piperidinyl]methanol hydrochloride], for which the remaining activity at 1.25 µM in assay [1] (Well no.=5875) worked out at 105%. Also, in assay [2] (Well no.=5875), the remaining activity at 3.75 µM is 113%.
As for `Cc1onc(-c2ccccc2)c1C(=O)N[C@@H]1C(=O)N2[C@@H]1SC(C)(C)[C@@H]2C(=O)O` [Oxacillin (sodium monohydrate)], in assay [1] (Well no.=7552), the remaining activity at 1.25 µM stood at 99.7%. Besides, the remaining activity at 3.75 µM in assay [2] (Well no.=7552) stood at 97.5%.
For `O=C(O)[C@@H]1CCCN1` [L-Proline], the remaining activity at 1.25 µM amounted to 105% in assay [1] (Well no.=7737) and 101% in assay [1] (Well no.=8324). Further, the remaining activity at 3.75 µM in assay [2] (Well no.=7737) was found to be 108%; in assay [2] (Well no.=8324), 97.3%.
